According to patent US9909107B2, “Brassica AHAS genes and gene alleles that provide resistance to imidazolinone herbicides” (priority 2004, dated 2018):
“And” between values parts separate entries of the source, which are not always exact repeats. Identical values can stand only once.

Tests used:
[1] = target: T1, AHAS enzyme in leaf discs of PM1 (mutation affecting the AHAS1 gene in the C genome) (Brassica napus, UniProt P27818, S638N); assay: AHAS activity assay of leaf discs, line PM1; format: biochemical; conditions: for tolerance provided by the mutation (in words): PM1 mutation
T1 construct: Relative AHAS activity of leaf discs exposed; from tissue; host or cells: leaf discs of B. napus line PM1
T1 sequence (P27818 83-655 S638N): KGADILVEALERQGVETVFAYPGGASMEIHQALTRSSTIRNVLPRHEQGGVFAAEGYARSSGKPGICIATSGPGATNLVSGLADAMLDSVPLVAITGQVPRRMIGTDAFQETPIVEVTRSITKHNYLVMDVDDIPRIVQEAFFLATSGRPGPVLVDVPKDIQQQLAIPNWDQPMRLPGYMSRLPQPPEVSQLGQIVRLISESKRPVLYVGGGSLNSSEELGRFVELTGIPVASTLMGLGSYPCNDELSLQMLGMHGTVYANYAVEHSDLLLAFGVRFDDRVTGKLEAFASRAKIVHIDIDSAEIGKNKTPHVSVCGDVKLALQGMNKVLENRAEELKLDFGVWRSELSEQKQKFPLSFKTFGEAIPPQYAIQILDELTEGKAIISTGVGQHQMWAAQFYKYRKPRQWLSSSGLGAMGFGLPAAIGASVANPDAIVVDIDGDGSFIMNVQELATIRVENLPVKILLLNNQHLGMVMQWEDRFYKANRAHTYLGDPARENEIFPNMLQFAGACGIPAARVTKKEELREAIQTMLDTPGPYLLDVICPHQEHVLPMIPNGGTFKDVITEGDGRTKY
Experimental: (§1) Leaf discs were removed from seedling leaves of J04E-0044 and subjected to an assay of AHAS activity, as described by Singh et al. (Anal. Biochem. 171: 173-179, 1988). The assay measures AHAS activity by estimating the amount of product, acetolactate, after conversion by decarboxylation in the presence of acid to acetoin. The assay compares the AHAS activity in two leaf discs. The control leaf disc was incubated in 10 mM phosphate buffer (pH 6.0) containing 50 mM pyruvate, 500 uM cyclopropane dicarboxylic acid (CPCA), 10% M&S salts and 0.5% alanine. The other leaf disc was in the same buffer in the presence of 2.5 uM imazamox, an imidazolinone herbicide. The herbicide normally binds to the AHAS enzyme and inhibits activity. The incubations were carried out at 22° C. for 16 hrs followed by measuring the absorbance at A530 nm. A completely herbicide susceptible plant will have an AHAS activity level near zero when exposed to an inhibitory herbicide, while a tolerant plant will have AHAS activity nearly equal to that of the control. A plant with a mutated AHAS gene in one genome but not the other will have intermediate AHAS activity in the present of enzyme inhibitor. The procedure was modified to include the addition of cydopropane dicarboxylic acid (CPCA), which prevents the further conversion of acetolactate to valine and leucine. In addition to an imidazolinone herbicide as an inhibitor, a sulfonylurea herbicide (chlorsulfuron) was also used on separate leaf discs to test for cross-tolerance in the same way except that 0.2 uM chlorsulfuron was used instead of 2.5 uM imazamox. In this table, the line PM1 is a B. napus variety with a mutation affecting the AHAS1 gene in the C genome only and PM2 is a B. napus variety with a mutation in the AHAS3 gene, located in the A genome. Susceptible check is a commercial B. juncea variety.

[2] = target: T2, AHAS enzyme in leaf discs of PM2 (mutation in the AHAS3 gene, A genome) (Brassica napus, UniProt P27819, W556L); assay: AHAS activity assay of leaf discs, line PM2; format: biochemical; conditions: for tolerance provided by the mutation (in words): PM2 mutation in the A genome
T2 construct: Relative AHAS activity of leaf discs exposed; from tissue; host or cells: leaf discs of B. napus line PM2
T2 sequence (P27819 70-652 W556L): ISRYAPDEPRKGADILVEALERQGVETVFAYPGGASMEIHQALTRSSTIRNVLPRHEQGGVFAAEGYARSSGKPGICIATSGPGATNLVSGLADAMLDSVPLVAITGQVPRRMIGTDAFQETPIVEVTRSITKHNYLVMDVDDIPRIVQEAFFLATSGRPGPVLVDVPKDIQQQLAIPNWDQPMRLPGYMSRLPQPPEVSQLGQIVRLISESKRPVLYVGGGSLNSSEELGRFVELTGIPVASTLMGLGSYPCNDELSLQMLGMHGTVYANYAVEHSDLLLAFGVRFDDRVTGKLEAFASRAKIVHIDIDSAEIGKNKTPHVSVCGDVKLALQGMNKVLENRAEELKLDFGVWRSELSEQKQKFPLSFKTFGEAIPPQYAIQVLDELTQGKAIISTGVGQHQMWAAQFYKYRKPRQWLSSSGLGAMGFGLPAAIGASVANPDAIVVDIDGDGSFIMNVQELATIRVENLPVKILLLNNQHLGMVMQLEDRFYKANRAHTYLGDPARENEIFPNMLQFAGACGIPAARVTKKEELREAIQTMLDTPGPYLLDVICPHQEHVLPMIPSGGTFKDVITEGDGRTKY
Experimental: as §1

[3] = tested on: AHAS enzyme in leaf discs of Susceptible check (B. juncea variety 'Arid'); assay: AHAS activity assay of leaf discs, susceptible check; format: biochemical, Brassica juncea
Experimental: as §1

[4] = tested on: AHAS enzyme in leaf discs of J04E-0044 (BjAHAS-bR mutant allele); assay: AHAS activity assay of leaf discs, line J04E-0044; format: biochemical, Brassica juncea; conditions: for tolerance provided by the mutation (in words): mutation in B. juncea variety J04E-0044
Experimental: as §1

| SMILES | Relative AHAS activity with imidazolinone (0-1) ([1]; PM1 leaf disc, 2.5 uM imazamox vs control disc, 22° C., 16 hrs, scale 0-1, assays #1-3) | tolerance provided by the mutation (in words) [1] | Relative AHAS activity with imidazolinone (0-1) ([2]; PM2 leaf disc, 2.5 uM imazamox vs control disc, 22° C., 16 hrs, scale 0-1, assays #1-2) | tolerance provided by the mutation (in words) [2] | AHAS activity in the presence of an imidazolinone herbicide relative to without the inhibitor ([3]; Arid (susceptible check)) | Relative AHAS activity with imidazolinone (0-1) ([3]; Susceptible check leaf disc, 2.5 uM imazamox vs control disc, 22° C., 16 hrs, scale 0-1) | relative AHAS activity ([4]; J04E-0044, imidazolinone as AHAS activity inhibitor (Table 1)) | Relative AHAS activity with imidazolinone (0-1) ([4]; J04E-0044 leaf disc, 2.5 uM imazamox vs control disc, 22° C., 16 hrs, scale 0-1, assays #1-3) | tolerance provided by the mutation (in words) [4] | Relative AHAS activity with chlorsulfuron (0-1) ([3]; Susceptible check leaf disc, 0.2 uM chlorsulfuron vs control disc, 22° C., 16 hrs, scale 0-1) |
| --- | --- | --- | --- | --- | --- | --- | --- | --- | --- | --- |
| COCc1cnc(C2=NC(C)(C(C)C)C(=O)N2)c(C(=O)O)c1 (stereo not shown) [imidazolinone, imazamox] | 0.256 and 0.292 and 0.276 | less tolerance | 0.607 and 0.722 | tolerance | less than 2% | 0.018 | 70% and 79% and 91% | 0.703 and 0.793 and 0.919 | tolerance equal to that of PM2 |  |
| COc1nc(C)nc(NC(=O)NS(=O)(=O)c2ccccc2Cl)n1 [chlorsulfuron] |  | no tolerance |  | tolerance |  |  |  |  | little tolerance | 0.029 |
